Like-named read-outs stand apart in the source and are kept apart here.
Experiments:
TAK1 = target: T1, TAK1 (Homo sapiens, UniProt O43318); assay: TAK1 enzyme inhibition; assay type: biochemical
T1 sequence (O43318 1-606): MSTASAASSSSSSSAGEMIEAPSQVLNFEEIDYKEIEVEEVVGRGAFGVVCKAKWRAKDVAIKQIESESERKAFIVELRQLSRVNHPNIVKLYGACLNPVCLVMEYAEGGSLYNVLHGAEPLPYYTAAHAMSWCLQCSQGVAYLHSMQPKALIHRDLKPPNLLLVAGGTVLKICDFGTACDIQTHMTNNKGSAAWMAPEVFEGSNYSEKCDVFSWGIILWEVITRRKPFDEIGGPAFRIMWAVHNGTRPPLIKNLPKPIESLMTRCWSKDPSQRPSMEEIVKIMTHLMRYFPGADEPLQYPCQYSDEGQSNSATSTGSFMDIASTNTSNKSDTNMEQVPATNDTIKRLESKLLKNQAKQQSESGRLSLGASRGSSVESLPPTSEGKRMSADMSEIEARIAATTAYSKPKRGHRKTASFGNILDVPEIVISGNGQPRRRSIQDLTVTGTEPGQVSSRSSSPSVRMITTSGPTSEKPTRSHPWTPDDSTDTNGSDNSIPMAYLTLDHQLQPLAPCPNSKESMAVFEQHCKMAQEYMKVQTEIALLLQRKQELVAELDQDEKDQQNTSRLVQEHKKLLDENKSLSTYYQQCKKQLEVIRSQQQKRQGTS
T1 sequence (Q15750 1-504 partner): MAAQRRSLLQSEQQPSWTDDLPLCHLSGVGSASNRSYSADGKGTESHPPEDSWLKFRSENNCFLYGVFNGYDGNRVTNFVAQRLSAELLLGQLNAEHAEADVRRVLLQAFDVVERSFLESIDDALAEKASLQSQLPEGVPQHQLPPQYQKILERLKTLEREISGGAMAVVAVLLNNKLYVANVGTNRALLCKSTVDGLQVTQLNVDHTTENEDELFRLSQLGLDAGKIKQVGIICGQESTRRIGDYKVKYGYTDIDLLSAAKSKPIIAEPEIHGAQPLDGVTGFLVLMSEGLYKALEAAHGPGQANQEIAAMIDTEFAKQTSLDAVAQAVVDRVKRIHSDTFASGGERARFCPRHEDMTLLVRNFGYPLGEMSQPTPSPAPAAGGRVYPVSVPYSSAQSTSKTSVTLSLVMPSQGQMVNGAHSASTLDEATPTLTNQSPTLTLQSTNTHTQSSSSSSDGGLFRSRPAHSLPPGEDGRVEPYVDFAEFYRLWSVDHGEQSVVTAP

Raji = assay: AlamarBlue proliferation assay, GI50; assay type: cell-based, human; conditions: 72 hours
Protocol: (§1) The TAK1 inhibitors are known in the art (see for example, WO 2003010158, WO 2003010163 and WO2004063186 the disclosures of which are incorporated by reference herein). All cell lines were plated at 10,000 cells/well in flat-bottomed 96 well plates and dosed with test compounds in triplicate over a 10 point dosing range from 0 to 30 μmolesL^−1. All cell lines were incubated with test compounds for a total of 72 hours. Background levels were determined for a control (undosed) plate within 2 hours of dosing test compounds. Following the dosing period, the extent of proliferation was measured by adding 1/10 (vol/vol) AlamarBlue reagent to every well and incubating the plates for a further 4 hours. The reaction was stopped by the addition of SDS to a final concentration of 0.1%. Fluorescence was measured at 545 nm (excitation) and 600 nm (emission). Growth inhibition 50 (GI50) values were determined for each test compound across the panel.

AM0-1 = assay: AlamarBlue proliferation assay, GI50; assay type: cell-based; conditions: Homo sapiens, 72 hours, Table 5, read-out: GI50 AM0-1 plasmacytoma
Protocol: as §1
(§2) The experiments to generate the results for both Tables 5 and 6 were performed as described above.

DERL 2 = assay: AlamarBlue proliferation assay, GI50; assay type: cell-based; conditions: Homo sapiens, T-cell, 72 hours, Table 6, read-out: GI50 DERL 2 T cell lymphoma
Protocol: as §1, §2

IM-9 = assay: AlamarBlue proliferation assay, GI50; assay type: cell-based; conditions: Homo sapiens, 72 hours, Table 5, read-out: GI50 IM-9 B lymph
Protocol: as §1, §2

JEKO-1 = assay: AlamarBlue proliferation assay, GI50; assay type: cell-based; conditions: Homo sapiens, 72 hours, Table 6, read-out: GI50 JEKO-1 MCL
Protocol: as §1, §2

JJN-3 = assay: AlamarBlue proliferation assay, GI50; assay type: cell-based; conditions: Homo sapiens, 72 hours, Table 5, read-out: GI50 JJN-3 plasma cell leukemia
Protocol: as §1, §2

JVM-3 = assay: AlamarBlue proliferation assay, GI50; assay type: cell-based; conditions: Homo sapiens, 72 hours, Table 6, read-out: GI50 JVM-3 B-PLL
Protocol: as §1, §2

KARPAS-620 = assay: AlamarBlue proliferation assay, GI50; assay type: cell-based; conditions: Homo sapiens, 72 hours, Table 5, read-out: GI50 KARPAS-620 plasma cell leukemia
Protocol: as §1, §2

L-363 = assay: AlamarBlue proliferation assay, GI50; assay type: cell-based; conditions: Homo sapiens, 72 hours, Table 5, read-out: GI50 L-363 plasma cell leukemia
Protocol: as §1, §2

MOLP-8 = assay: AlamarBlue proliferation assay, GI50; assay type: cell-based; conditions: Homo sapiens, 72 hours, Table 5, read-out: GI50 MOLP-8 Multiple myeloma
Protocol: as §1, §2

NAMALWA = assay: AlamarBlue proliferation assay, GI50; assay type: cell-based; conditions: Homo sapiens, 72 hours, Table 6, read-out: GI50 NAMALWA Burkitts Lymphoma
Protocol: as §1, §2

RPMI-8226 = assay: AlamarBlue proliferation assay, GI50; assay type: cell-based; conditions: Homo sapiens, 72 hours, Table 5, read-out: GI50 RPMI-8226 Multiple myeloma
Protocol: as §1, §2

Ramos = assay: AlamarBlue proliferation assay, GI50; assay type: cell-based; conditions: Homo sapiens, 72 hours, Table 6, read-out: GI50 Ramos Burkitts Lymphoma
Protocol: as §1, §2

SC-1 = assay: AlamarBlue proliferation assay, GI50; assay type: cell-based; conditions: Homo sapiens, 72 hours, Table 6, read-out: GI50 SC-1 FL
Protocol: as §1, §2

U937 = assay: AlamarBlue proliferation assay, GI50; assay type: cell-based; conditions: Homo sapiens, U-937, 72 hours, Table 6, read-out: GI50 U937 Histiocytic lymphoma
Protocol: as §1, §2

WSU DLCL2 = assay: AlamarBlue proliferation assay, GI50; assay type: cell-based; conditions: Homo sapiens, WSUDLCL2, 72 hours, Table 6, read-out: GI50 WSU DLCL2 B cell lymphoma
Protocol: as §1, §2

- IC50 (TAK1; Table 4, read-out: TAK1 pIC50 (enzyme) (converted)): 63.1 nM
- TAK1 pIC50 (TAK1; Table 5): 7.2
- GI50 (Raji; Table 6, read-out: GI50 Raji Burkitts Lymphoma): > 30000 nM
- GI50 (Raji; Homo sapiens, Raji, Table 4, read-out: GI50 Raji Burkitts Lymphoma): > 30000 nM
- GI50 (KARPAS-620): 140 nM
- GI50 (RPMI-8226): 1600 nM
- GI50 (Ramos): 210 nM
- GI50 (U937): 120 nM
Compound: COC(C)(C)CNCc1ccc(-c2cc(NC(N)=O)c(C(N)=O)s2)cc1 [Compound 4, 3-[(aminocarbonyl)amino]-5-(4-{[(2-methoxy-2-methylpropyl)amino]methyl}phenyl)thiophene-2-carboxamide]
- GI50 (AM0-1): 910 nM
- GI50 (DERL 2): 310 nM
- GI50 (IM-9): 210 nM
- GI50 (JEKO-1): 290 nM
- GI50 (JJN-3): 520 nM
- GI50 (JVM-3): 140 nM
- GI50 (L-363): 350 nM
- GI50 (MOLP-8): 90 nM
- GI50 (NAMALWA): 2960 nM
- GI50 (SC-1): 2880 nM
- GI50 (WSU DLCL2): 1950 nM

Reference: patent publication US20090312396A1, “METHODS FOR CANCER TREATMENT USING TAK1 INHIBITORS” (AstraZeneca AB, priority 2006, published 2009)
